According to patent publication US11891374B2, “Derivatized benzimidazole compounds, their salts, their complexes, their pharmaceutical compositions and methods for using them for antigeriatric actions” (priority 2020, dated 2024):

Columns and labels:
[1] = tested on: imidazoline receptors of all subtypes; details: cited from earlier work
Drosophila fruit flies = details: in vivo

SMILES | concentration range of binding to imidazoline receptors [1] [mM] | MLS (day) Females (Drosophila fruit flies) [days] | MLS (day) Males (Drosophila fruit flies) [days] | extension of lifespan / MLS versus control (Drosophila fruit flies) [fold] | lifespan of Drosophila extended to (Drosophila fruit flies) [days]
N=C(N)NCCCCN [Agmatine, N-(4-aminobutyl)guanidine] | 0.5 to 5 | – | – | – | –
Cc1cc(C)c2c(c1)nc(Cn1c3ccccc3c(=O)c3ccccc31)n2C [XVg] | – | 67 ± 9 | 66 ± 9 | ~3 | 70
